Patent publication US8618096B2, “Prodrug compositions and methods for using the same in treating cancer and malaria” (The Regents of the University of California, priority 2008, dated 2013)

Experiments:
[1] = Fe(II) activation and drug release in vitro (LC/MS); format: physicochemical
Method: In a series of experiments, the compound of Example 1 (0.03 mM) was incubated with various amounts (0-100 equivalents) of a ferrous iron salt (ferrous bromide) in a 1:1 solution of acetonitrile and an aqueous buffer at ambient temperature. Either of two buffers were used in these studies: pH 5.5 sodium acetate buffer intended to mimic a lysosomal environment or pH 7.4 phosphate buffered saline. At various time points, a 10 μl sample of the incubation mixture was removed and analyzed by liquid chromatography/mass spectroscopy (LC/MS) to identify the expected products of iron-promoted degradation and drug release. A Waters Alliance/ZQ micromass LC/MS system and a 15 min method employing gradient elution with acetonitrile-water mobile phase (containing 0.1% formic acid) was employed. In the absence of ferrous iron salts, the compound of example 1 was stable for 48 hrs, showing no detectable chemical degradation by LC/MS spectroscopy. In the presence of ferrous bromide however, the compound of example 1 was rapidly (less than 1 hour) converted into the expected ketone (analogous to G, FIG. 2) resulting from iron-promoted degradation of the trioxolane ring. Also observed was a signal attributable to the released drug species, 2,5-dichloroaniline.

[2] = test system: 3D7 strain of P. falciparum; experiment: Antimalarial activity, parasite growth in human erythrocytes (YOYO-1 flow cytometry), 3D7 strain; format: cell-based; settings: Plasmodium falciparum, 3D7, Erythrocyte; 72 hr growth period, eight-point dose-response
Method: (§1) Cultures of 3D7 and W2 strains of P. falciparum parasites were grown in purified human erythrocytes and synchronous cultures were placed into 96-well plates containing test compounds. After a 72 hr growth period, cultures were fixed for 1 hr at room temperature in 1% paraformaldehyde and stained with 50 nM YOYO-1 for about 24 hr in the dark. Samples were analyzed on a Becton-Dickinson LSR2 fitted with a microplate reader. Uninfected erythrocytes were used to determine background autofluorescence. Parasite growth in each sample was determined relative to infected erythrocytes without test compound. “Eight-point dose-response curves were generated and EC50 values determined using GRAPHPAD PRISM® software”.

[3] = test system: W2 strain of P. falciparum; experiment: Antimalarial activity, parasite growth in human erythrocytes (YOYO-1 flow cytometry), W2 strain; format: cell-based; settings: Plasmodium falciparum, W2, Erythrocyte; 72 hr growth period, eight-point dose-response
Method: as §1

[4] = test system: W2 strain P. falciparum parasites; experiment: Evaluation of drug release in cells: food vacuole phenotype in Giemsa-stained blood smears; format: cell-based, Plasmodium falciparum; settings: 24 hrs, ring stage W2 parasites
Method: Cmpd 72 is the prodrug form of a parasite cysteine protease inhibitor, specifically an inhibitor of the proteases falcipain-2 and falcipain-3 from the malaria parasite Plasmodium falciparum. […] Thus, observation of the food vacuole phenotype upon treatment of cultured P. falciparum parasites with the protease inhibitor prodrug would constitute positive evidence for release of the free drug inside the parasite.
Synchronized W2 strain P. falciparum parasites (ring stage) were grown as described herein and incubated in the presence of test and control compounds for 24 hrs. Next, a blood smear was made, fixed with methanol, and stained with Giemsa, as known in the art. Parasites were then imaged at 100× magnification to identify the presence or absence of the food vacuole phenotype.

| SMILES | EC50 [2] [nM] | EC50 [3] [nM] | food vacuole phenotype (falcipain inhibition) ([4]; 1.1 uM, FIG. 3C-E) | also measured |
| --- | --- | --- | --- | --- |
| O=C(CCC1(CCOC(=O)Nc2cc(Cl)ccc2Cl)OOC2(O1)C1CC3CC(C1)CC2C3)NCCN1CCOCC1 (stereo not drawn) [Cmpd 40, 2-(5,5-spiroadamantyl-3-(3-(2-morpholinoethylamino)-3-oxopropyl)-1,2,4-trioxolan-3-yl)ethyl-2,5-dichlorophenylcarbamate] | 16 | 24 | – | time of conversion into the expected ketone (iron-promoted degradation of the trioxolane ring) ([1]; 0.03 mM, in the presence of ferrous bromide, 1:1 acetonitrile and aqueous buffer, ambient temperature): less than 1 hour; stability in the absence of ferrous iron salts (no detectable chemical degradation by LC/MS) ([1]; 48 h, 0.03 mM): ≥ 48 h; release of drug species 2,5-dichloroaniline ([1]; in the presence of ferrous bromide, during the course of the experiment, LC/MS): the quantity of 2,5-dichloroaniline increased |
| O=C(CCC1(CCOC(=O)N2CCN(c3ccccc3)CC2)OOC2(O1)C1CC3CC(C1)CC2C3)NCCN1CCOCC1 (stereo not drawn) [Cmpd 45, 2-(5,5-spiroadamantyl-3-(3-(2-morpholinoethylamino)-3-oxopropyl)-1,2,4-trioxolan-3-yl)ethyl 4-phenylpiperazine-1-carboxylate] | 9 | 4.9 | – | – |
| CN(Cc1ccccc1)C(=O)OCCC1(CCC(=O)NCCN2CCOCC2)OOC2(O1)C1CC3CC(C1)CC2C3 (stereo not drawn) [Cmpd 47, 2-(5,5-spiroadamantyl-3-(3-(2-morpholinoethylamino)-3-oxopropyl)-1,2,4-trioxolan-3-yl)ethyl benzyl(methyl)carbamate] | 16 | 15 | – | – |
| O=C(CCC1(CCOC(=O)N(CCCNc2ccnc3cc(Cl)ccc23)Cc2ccco2)OOC2(O1)C1CC3CC(C1)CC2C3)NCCN1CCOCC1 (stereo not drawn) [Cmpd 48, 2-(5,5-spiroadamantyl-3-(3-(2-morpholinoethylamino)-3-oxopropyl)-1,2,4-trioxolan-3-yl)ethyl 3-(7-chloroquinolin-4-ylamino)propyl(furan-2-ylmethyl)carbamate] | 38 | 62 | – | – |
| O=C(CCC1(CCO)OOC2(O1)C1CC3CC(C1)CC2C3)NCCCN1CCCC1=O (stereo not drawn) [Cmpd 58, 3-(3-(2-hydroxyethyl)-5,5-spiroadamantyl-1,2,4-trioxolan-3-yl)-N-(3-(2-oxopyrrolidin-1-yl)propyl)propanamide] | – | – | does not produce the protease-inhibited phenotype | – |
| CC(C)(C[C@H](NC(=O)N1CCOCC1)C(=O)N[C@H](/C=C/S(=O)(=O)c1ccccc1)CCc1ccccc1)OC(=O)OCCC1(CCC(=O)NCCCN2CCCC2=O)OOC2(O1)C1CC3CC(C1)CC2C3 (stereo partly drawn) [Cmpd 72] | – | – | does produce the falcipain-inhibited phenotype | – |
| CC(C)C[C@H](NC(=O)[C@H]1O[C@@H]1C(=O)O)C(=O)NCCCCN=C(N)N [E64, reference compound] | – | – | – | food vacuole phenotype (falcipain inhibition) ([4]; 3.3 uM, FIG. 3B): swollen, dark-staining food vacuole |
| CC(C)(O)C[C@H](NC(=O)N1CCOCC1)C(=O)N[C@H](/C=C/S(=O)(=O)c1ccccc1)CCc1ccccc1 [N—((S)-4-hydroxy-4-methyl-1-oxo-1-((S,E)-5-phenyl-1-(phenylsulfonyl)pent-1-en-3-ylamino)pentan-2-yl)morpholine-4-carboxamide, reference compound] | – | – | swollen, dark-staining food vacuole | – |
